Test results reported in the NIST ThermoML archive (doi:10.1016/j.jct.2019.06.014).

Conditions: 101.33 kPa, Liquid, transient hot wire

CCO [ethanol]
Conditions | thermal conductivity [W/m/K]
276.51 K | 0.1719
287.55 K | 0.1677
297.25 K | 0.1645
307.16 K | 0.1617

CCOC(C)=O [ethyl acetate]
Conditions | thermal conductivity [W/m/K]
249.13 K | 0.1618
253.89 K | 0.1602
260.17 K | 0.1574
268.04 K | 0.154
274.35 K | 0.152
281.34 K | 0.1491
285.31 K | 0.1472
290.42 K | 0.1451
295.44 K | 0.1429
298.52 K | 0.1414
303.53 K | 0.1396
308.44 K | 0.1378
313.45 K | 0.1361
318.4 K | 0.1346
323.25 K | 0.1324
328.39 K | 0.1308
333.37 K | 0.1288
338.34 K | 0.1273
343.27 K | 0.1257
345.43 K | 0.1245
348.46 K | 0.1239

CCCCC(=O)OCC [ethyl pentanoate]
Conditions | thermal conductivity [W/m/K]
249.21 K | 0.1501
263.9 K | 0.1458
273.5 K | 0.1433
283.8 K | 0.1396
288.74 K | 0.1389
289.42 K | 0.1377
293.69 K | 0.1369
298.79 K | 0.1357
303.69 K | 0.1344
308.61 K | 0.1328
313.74 K | 0.1314
318.49 K | 0.1301
323.74 K | 0.1282
328.62 K | 0.1268
333.51 K | 0.1256
338.47 K | 0.1241
343.55 K | 0.1228
348.55 K | 0.1216
353.49 K | 0.1201
358.46 K | 0.1184
363.57 K | 0.1177

CCCC(=O)OCC [ethyl butanoate]
Conditions | thermal conductivity [W/m/K]
268.57 K | 0.1471
273.61 K | 0.1446
278.63 K | 0.1423
283.58 K | 0.1408
288.65 K | 0.1385
293.58 K | 0.1374
298.53 K | 0.1357
303.56 K | 0.1339
308.67 K | 0.132
313.49 K | 0.1311
318.61 K | 0.1293
323.42 K | 0.1282
328.48 K | 0.1264
333.46 K | 0.1249
338.5 K | 0.1234
343.51 K | 0.1214
348.54 K | 0.12
353.36 K | 0.1192
358.57 K | 0.1173
363.52 K | 0.1163

CCCCCC(=O)OCC [ethyl hexanoate]
Conditions | thermal conductivity [W/m/K]
254.29 K | 0.1474
264.08 K | 0.1447
274.02 K | 0.1429
283.95 K | 0.1398
293.74 K | 0.1375
303.7 K | 0.1353
313.76 K | 0.1323
323.67 K | 0.13
333.63 K | 0.1268
343.56 K | 0.1242
353.55 K | 0.1216
363.41 K | 0.1191
373.4 K | 0.1172
383.37 K | 0.1153

O [water]
Conditions | thermal conductivity [W/m/K]
299.55 K | 0.613
309.83 K | 0.6313
319.56 K | 0.6399
332.53 K | 0.6555
339.33 K | 0.657
349.41 K | 0.6723

CCOC(=O)CC [ethyl propanoate]
Conditions | thermal conductivity [W/m/K]
263.55 K | 0.1547
268.41 K | 0.1531
270.94 K | 0.152
278.51 K | 0.1474
283.51 K | 0.1447
288.56 K | 0.143
293.54 K | 0.1408
296.36 K | 0.1404
301.4 K | 0.1384
306.51 K | 0.1365
311.34 K | 0.1348
316.45 K | 0.1332
321.47 K | 0.1314
326.44 K | 0.13
331.53 K | 0.128
336.4 K | 0.1264
341.36 K | 0.125
346.42 K | 0.1231
351.35 K | 0.1219
356.28 K | 0.1208
